# Test system: 922993-354-T-J3-PDC complex spheroids, viability
# Test: Anticancer human tumor 922993-354-T-J3-PDC patient-derived endometrial carcinoma cell line growth inhibition [GQUAD]
# Conditions: for IC50: curve of first compound; for viability, T/C: stronger effect = lower value
# In short: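 Multi-cell-type spheroids of tumor cells with HUVEC and mesenchymal stem cells, treated with drug combinations. Concentrations descend in half-log steps from near clinical Cmax, or from 10 microM where Cmax is unknown; viability read-out.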
# [1] = second compound 0.0316 µM, first compound 0.0316 µM
# [2] = second compound 0.0316 µM, first compound 0.1 µM
# [3] = second compound 0.0316 µM, first compound 0.316 µM
# [4] = second compound 0.0316 µM, first compound 1 µM
# [5] = second compound 0.0316 µM, first compound 3.16 µM
# [6] = second compound 0.0316 µM, first compound 10 µM
# [7] = second compound 0.1 µM, first compound 0.0316 µM
# [8] = second compound 0.1 µM, first compound 0.1 µM
# [9] = second compound 0.1 µM, first compound 0.316 µM
# [10] = second compound 0.1 µM, first compound 1 µM
# [11] = second compound 0.1 µM, first compound 3.16 µM
# [12] = second compound 0.1 µM, first compound 10 µM
# [13] = second compound 0.316 µM, first compound 0.0316 µM
# [14] = second compound 0.316 µM, first compound 0.1 µM
# [15] = second compound 0.316 µM, first compound 0.316 µM
# [16] = second compound 0.316 µM, first compound 1 µM
# [17] = second compound 0.316 µM, first compound 3.16 µM
# [18] = second compound 0.316 µM, first compound 10 µM
# [19] = second compound 1 µM, first compound 0.0316 µM
# [20] = second compound 1 µM, first compound 0.1 µM
# [21] = second compound 1 µM, first compound 0.316 µM
# [22] = second compound 1 µM, first compound 1 µM
# [23] = second compound 1 µM, first compound 3.16 µM
# [24] = second compound 1 µM, first compound 10 µM
# [25] = second compound 3.16 µM, first compound 0.0316 µM
# [26] = second compound 3.16 µM, first compound 0.1 µM
# [27] = second compound 3.16 µM, first compound 0.316 µM
# [28] = second compound 3.16 µM, first compound 1 µM
# [29] = second compound 3.16 µM, first compound 3.16 µM
# [30] = second compound 3.16 µM, first compound 10 µM
# [31] = second compound 10 µM, first compound 0.0316 µM
# [32] = second compound 10 µM, first compound 0.1 µM
# [33] = second compound 10 µM, first compound 0.316 µM
# [34] = second compound 10 µM, first compound 1 µM
# [35] = second compound 10 µM, first compound 3.16 µM
# [36] = second compound 10 µM, first compound 10 µM
# 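Further: spheroids exposed to compounds for seven days.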
# 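Wherever viability, T/C is given: 100% = DMSO vehicle control viability.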
smiles,measurement,setting,value
C#Cc1c(F)ccc2cc(O)cc(-c3ncc4c(N5CC6CCC(C5)N6)nc(OCC56CCCN5CC(F)C6)nc4c3F)c12 (stereo not drawn) + Cc1[nH]c2ccc(F)cc2c1-c1nc2c3cccnc3c3ncccc3c2[nH]1,IC50,second compound 0.0316 µM,> 10000 nM
same,IC50,second compound 0.1 µM,> 10000 nM
same,IC50,second compound 0.316 µM,> 10000 nM
same,IC50,second compound 1 µM,> 10000 nM
same,IC50,second compound 3.16 µM,> 10000 nM
same,IC50,second compound 10 µM,> 10000 nM
same,"viability, T/C",[1],112%
same,"viability, T/C",[2],93.3%
same,"viability, T/C",[3],106%
same,"viability, T/C",[4],98.2%
same,"viability, T/C",[5],96%
same,"viability, T/C",[6],80.7%
same,"viability, T/C",[7],103%
same,"viability, T/C",[8],98.4%
same,"viability, T/C",[9],94.7%
same,"viability, T/C",[10],107%
same,"viability, T/C",[11],116%
same,"viability, T/C",[12],110%
same,"viability, T/C",[13],87%
same,"viability, T/C",[14],88.8%
same,"viability, T/C",[15],94%
same,"viability, T/C",[16],99.2%
same,"viability, T/C",[17],87.8%
same,"viability, T/C",[18],124%
same,"viability, T/C",[19],83.4%
same,"viability, T/C",[20],108%
same,"viability, T/C",[21],99.5%
same,"viability, T/C",[22],120%
same,"viability, T/C",[23],125%
same,"viability, T/C",[24],114%
same,"viability, T/C",[25],103%
same,"viability, T/C",[26],87.6%
same,"viability, T/C",[27],121%
same,"viability, T/C",[28],107%
same,"viability, T/C",[29],114%
same,"viability, T/C",[30],113%
same,"viability, T/C",[31],91.6%
same,"viability, T/C",[32],104%
same,"viability, T/C",[33],101%
same,"viability, T/C",[34],110%
same,"viability, T/C",[35],127%
same,"viability, T/C",[36],113%
CCCS(=O)(=O)Nc1ccc(F)c(C(=O)c2c[nH]c3ncc(-c4ccc(Cl)cc4)cc23)c1F + Cc1[nH]c2ccc(F)cc2c1-c1nc2c3cccnc3c3ncccc3c2[nH]1,IC50,second compound 0.0316 µM,> 10000 nM
same,IC50,second compound 0.1 µM,> 10000 nM
same,IC50,second compound 0.316 µM,> 10000 nM
same,IC50,second compound 1 µM,> 10000 nM
same,IC50,second compound 3.16 µM,> 10000 nM
same,IC50,second compound 10 µM,> 10000 nM
same,"viability, T/C",[1],113%
same,"viability, T/C",[2],101%
same,"viability, T/C",[3],78.5%
same,"viability, T/C",[4],69.4%
same,"viability, T/C",[5],77.3%
same,"viability, T/C",[6],68.4%
same,"viability, T/C",[7],119%
same,"viability, T/C",[8],99.2%
same,"viability, T/C",[9],75.7%
same,"viability, T/C",[10],81.2%
same,"viability, T/C",[11],76.9%
same,"viability, T/C",[12],57.1%
same,"viability, T/C",[13],101%
same,"viability, T/C",[14],82.4%
same,"viability, T/C",[15],81.5%
same,"viability, T/C",[16],77.2%
same,"viability, T/C",[17],78.2%
same,"viability, T/C",[18],56.2%
same,"viability, T/C",[19],93%
same,"viability, T/C",[20],83.5%
same,"viability, T/C",[21],61.9%
same,"viability, T/C",[22],92.9%
same,"viability, T/C",[23],82%
same,"viability, T/C",[24],56.7%
same,"viability, T/C",[25],91.2%
same,"viability, T/C",[26],98.6%
same,"viability, T/C",[27],82.5%
same,"viability, T/C",[28],87.5%
same,"viability, T/C",[29],76.4%
same,"viability, T/C",[30],60.9%
same,"viability, T/C",[31],96.9%
same,"viability, T/C",[32],99.7%
same,"viability, T/C",[33],85.4%
same,"viability, T/C",[34],81.4%
same,"viability, T/C",[35],76.9%
same,"viability, T/C",[36],64%
Cc1[nH]c2ccccc2c1CCNCc1ccc(/C=C/C(=O)NO)cc1 + Cc1[nH]c2ccc(F)cc2c1-c1nc2c3cccnc3c3ncccc3c2[nH]1,IC50,second compound 0.0316 µM,> 316 nM
same,IC50,second compound 0.1 µM,> 316 nM
same,IC50,second compound 0.316 µM,> 316 nM
same,IC50,second compound 1 µM,> 316 nM
same,IC50,second compound 3.16 µM,> 316 nM
same,IC50,second compound 10 µM,> 316 nM
same,"viability, T/C","second compound 0.0316 µM, first compound 0.000999 µM",95.9%
same,"viability, T/C","second compound 0.0316 µM, first compound 0.00316 µM",87%
same,"viability, T/C","second compound 0.0316 µM, first compound 0.00999 µM",100%
same,"viability, T/C",[1],77.6%
same,"viability, T/C","second compound 0.0316 µM, first compound 0.0999 µM",75.6%
same,"viability, T/C",[3],61.3%
same,"viability, T/C","second compound 0.1 µM, first compound 0.000999 µM",94.1%
same,"viability, T/C","second compound 0.1 µM, first compound 0.00316 µM",100%
same,"viability, T/C","second compound 0.1 µM, first compound 0.00999 µM",85.3%
same,"viability, T/C",[7],83.3%
same,"viability, T/C","second compound 0.1 µM, first compound 0.0999 µM",79.3%
same,"viability, T/C",[9],55.8%
same,"viability, T/C","second compound 0.316 µM, first compound 0.000999 µM",96.2%
same,"viability, T/C","second compound 0.316 µM, first compound 0.00316 µM",93.5%
same,"viability, T/C","second compound 0.316 µM, first compound 0.00999 µM",91%
same,"viability, T/C",[13],81.2%
same,"viability, T/C","second compound 0.316 µM, first compound 0.0999 µM",88.3%
same,"viability, T/C",[15],66.9%
same,"viability, T/C","second compound 1 µM, first compound 0.000999 µM",96.3%
same,"viability, T/C","second compound 1 µM, first compound 0.00316 µM",92.2%
same,"viability, T/C","second compound 1 µM, first compound 0.00999 µM",115%
same,"viability, T/C",[19],84%
same,"viability, T/C","second compound 1 µM, first compound 0.0999 µM",100%
same,"viability, T/C",[21],50.6%
same,"viability, T/C","second compound 3.16 µM, first compound 0.000999 µM",93.5%
same,"viability, T/C","second compound 3.16 µM, first compound 0.00316 µM",80.6%
same,"viability, T/C","second compound 3.16 µM, first compound 0.00999 µM",80%
same,"viability, T/C",[25],79.1%
same,"viability, T/C","second compound 3.16 µM, first compound 0.0999 µM",95.4%
same,"viability, T/C",[27],71.8%
same,"viability, T/C","second compound 10 µM, first compound 0.000999 µM",82.6%
same,"viability, T/C","second compound 10 µM, first compound 0.00316 µM",109%
same,"viability, T/C","second compound 10 µM, first compound 0.00999 µM",88.2%
same,"viability, T/C",[31],82.8%
same,"viability, T/C","second compound 10 µM, first compound 0.0999 µM",112%
same,"viability, T/C",[33],70.3%
O=C(NO)c1cnc(N2CCN(S(=O)(=O)c3ccc4ccccc4c3)CC2)nc1 + Cc1[nH]c2ccc(F)cc2c1-c1nc2c3cccnc3c3ncccc3c2[nH]1,IC50,second compound 0.0316 µM,409 nM
same,IC50,second compound 0.1 µM,542 nM
same,IC50,second compound 0.316 µM,772 nM
same,IC50,second compound 1 µM,870 nM
same,IC50,second compound 3.16 µM,1120 nM
same,IC50,second compound 10 µM,921 nM
same,"viability, T/C",[1],116%
same,"viability, T/C",[2],89.1%
same,"viability, T/C",[3],52.9%
same,"viability, T/C",[4],34.6%
same,"viability, T/C",[5],3.09%
same,"viability, T/C",[6],0.42%
same,"viability, T/C",[7],114%
same,"viability, T/C",[8],89.5%
same,"viability, T/C",[9],65%
same,"viability, T/C",[10],38.6%
same,"viability, T/C",[11],3.39%
same,"viability, T/C",[12],0.48%
same,"viability, T/C",[13],93.2%
same,"viability, T/C",[14],95.9%
same,"viability, T/C",[15],72.2%
same,"viability, T/C",[16],46.6%
same,"viability, T/C",[17],4.7%
same,"viability, T/C",[18],0.61%
same,"viability, T/C",[19],84.2%
same,"viability, T/C",[20],90.3%
same,"viability, T/C",[21],68.7%
same,"viability, T/C",[22],51.2%
same,"viability, T/C",[23],6.64%
same,"viability, T/C",[24],0.62%
same,"viability, T/C",[25],75.7%
same,"viability, T/C",[26],86.5%
same,"viability, T/C",[27],91.1%
same,"viability, T/C",[28],51.4%
same,"viability, T/C",[29],15%
same,"viability, T/C",[30],0.64%
same,"viability, T/C",[31],82.8%
same,"viability, T/C",[32],101%
same,"viability, T/C",[33],74.7%
same,"viability, T/C",[34],48.2%
same,"viability, T/C",[35],14.7%
same,"viability, T/C",[36],0.76%
